Patent US7973071B2, “Substituted gamma lactams as therapeutic agents” (Allergan, Inc., priority 2005, dated 2011)

Assays:
[1] = target: T1, EP4 receptors (Homo sapiens, UniProt P35408); test: Radioligand binding vs [3H]PGE2, EP4
T1 construct: expressed in transfected cells; host or cells: HEK-293
Procedure: HEK-293 cells stably expressing the human or feline FP receptor, or EP1, EP2, or EP4 receptors were washed with TME buffer, scraped from the bottom of the flasks, and homogenized for 30 sec using a Brinkman PT 10/35 polytron. TME buffer was added to achieve a final 40 ml volume in the centrifuge tubes (the composition of TME is 100 mM TRIS base, 20 mM MgCl2, […]; 10N HCl is added to achieve a pH of 7.4).
The cell homogenate was centrifuged at 19000 r.p.m. for 20 min at 4° C. using a Beckman Ti-60 rotor. The resultant pellet was resuspended in TME buffer to give a final 1 mg/ml protein concentration, as determined by Biorad assay. Radioligand binding competition assays vs. [^3H-]17 phenyl PGF2α, (5 nM) were performed in a 1001μvolume for 60 min. Binding reactions were started by adding plasma membrane fraction. The reaction was terminated by the addition of 4 ml ice-cold TRIS-HCl buffer and rapid filtration through glass fiber GF/B filters using a Brandel cell harvester. The filters were washed 3 times with ice-cold buffer and oven dried for one hour.
[^3H-] PGE2 (specific activity 180 Ci mmol) was used as the radioligand for EP receptors. [^3H] 17-phenyl PGF2α was employed for FP receptor binding studies. […] 17-phenyl PGF2α and non-specific binding determined with 10^−5M of unlabeled PGE2, or 17-phenyl PGF2α, according to receptor subtype studied.

[2] = target: T2, EP2 (Homo sapiens, UniProt P43116); test: EP2 cAMP assay; type: cell-based
[3] = target: T3, hEP3A/Gqi5 (Homo sapiens, UniProt P43115); test: FLIPR calcium signal study, EP3A; type: cell-based; settings: read-out: Other Receptors hEP3A EC50
T3 construct: expressed in transfected cells; host or cells: HEK-293(EBNA)
T3 sequence (P43115 1-390): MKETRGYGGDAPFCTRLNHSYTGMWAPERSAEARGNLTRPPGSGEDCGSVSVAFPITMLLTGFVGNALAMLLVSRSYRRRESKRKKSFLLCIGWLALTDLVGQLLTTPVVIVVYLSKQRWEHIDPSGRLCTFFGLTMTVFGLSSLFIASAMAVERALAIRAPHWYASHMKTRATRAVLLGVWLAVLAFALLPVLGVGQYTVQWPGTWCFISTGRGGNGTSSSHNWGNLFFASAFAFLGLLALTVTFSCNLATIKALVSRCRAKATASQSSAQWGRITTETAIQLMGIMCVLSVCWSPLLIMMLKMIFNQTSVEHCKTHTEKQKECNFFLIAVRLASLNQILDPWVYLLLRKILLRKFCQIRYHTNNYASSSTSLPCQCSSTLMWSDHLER
Procedure: HEK-293(EBNA) cells, stably expressing one type or subtype of recombinant human prostaglandin receptors (prostaglandin receptors expressed: hDP/Gqs5; hEP1; hEP2/Gqs5; hEP3A/Gqi5; hEP4/Gqs5; hFP; hIP; hTP), were cultured in 100 mm culture dishes in high-glucose DMEM medium containing 10% fetal bovine serum, 2 mM 1-glutamine, 250 μg/ml geneticin (G418) and 200 μg/ml hygromycin B as selection markers, and 100 units/ml penicillin G, 100 μg/ml streptomycin and 0.25 μg/ml amphotericin B.
Cells were seeded at a density of 5×10^4 cells per well in Biocoat® Poly-D-lysine-coated black-wall, clear-bottom 96-well plates (Becton-Dickinson) and allowed to attach overnight in an incubator at 37° C. Cells were then washed two times with HBSS-HEPES buffer (Hanks Balanced Salt Solution without bicarbonate and phenol red, 20 mM HEPES, pH 7.4) using a Denley Cellwash plate washer (Labsystems). […]
Cells were excited with an Argon laser at 488 nm, and emission was measured through a 510-570 nm bandwidth emission filter (FLIPR™, Molecular Devices, Sunnyvale, Calif.). […] The peak increase in fluorescence intensity was recorded for each well. […] The peak fluorescence change in each drug-containing well was then expressed relative to the controls. […]

[4] = target: T2, EP2; test: Competition binding vs [3H]PGE2, EP2; design: expressed in transfected cells; host or cells: HEK 293; settings: HEK 293 cells stably expressing human EP2
Procedure: Competition binding experiments were performed in a medium containing Hank's balanced salt solution, Hepes 20 mM, pH 7.3, membranes (˜60 μg protein) or 2×10^5 cells from HEK 293 cells stably expressing human EP2 receptors, [^3H]PGE2 (10 nM) and various concentrations of test compounds in a total volume of 300 μl. Reaction mixtures were incubated at 23° C. for 60 min, and were filtered over Whatman GF/B filters under vacuum. Filters were washed three times with 5 ml ice-cold buffer containing 50 mM Tris/HCl (pH 7.3). Non-specific binding was estimated in the presence of excess unlabeled PGE2 (10 μM). Binding data fitted to the binding model for a single class of binding sites, using nonlinear regression analysis. IC50 values thus obtained were converted to Ki using the equation of Ki=(IC50/(1+[L]/KD) where [L] represents PGE2 concentration (10 nM) and KD the dissociation constant for [^3H]PGE2 at human EP2 receptors (40 nM). […]
The cell homogenate was centrifuged at 19000 r.p.m. for 20 min at 4° C. using a Beckman Ti-60 rotor. The resultant pellet was resuspended in TME buffer to give a final 1 mg/ml protein concentration, as determined by Biorad assay. […]
[^3H-] […] 17-phenyl PGF2α and non-specific binding determined with 10^−5M of unlabeled PGE2, or 17-phenyl PGF2α, according to receptor subtype studied.

T2 sequence (P43116 whole entry): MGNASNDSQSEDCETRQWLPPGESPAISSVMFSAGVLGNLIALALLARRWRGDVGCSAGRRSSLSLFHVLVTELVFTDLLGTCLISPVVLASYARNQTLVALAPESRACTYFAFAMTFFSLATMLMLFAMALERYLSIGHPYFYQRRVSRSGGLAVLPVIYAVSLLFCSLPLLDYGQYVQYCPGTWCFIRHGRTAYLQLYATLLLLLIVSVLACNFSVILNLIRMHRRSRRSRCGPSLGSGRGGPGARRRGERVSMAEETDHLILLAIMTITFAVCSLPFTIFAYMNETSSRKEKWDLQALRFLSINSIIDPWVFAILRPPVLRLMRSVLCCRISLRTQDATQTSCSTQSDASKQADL
T1 sequence (P35408 whole entry): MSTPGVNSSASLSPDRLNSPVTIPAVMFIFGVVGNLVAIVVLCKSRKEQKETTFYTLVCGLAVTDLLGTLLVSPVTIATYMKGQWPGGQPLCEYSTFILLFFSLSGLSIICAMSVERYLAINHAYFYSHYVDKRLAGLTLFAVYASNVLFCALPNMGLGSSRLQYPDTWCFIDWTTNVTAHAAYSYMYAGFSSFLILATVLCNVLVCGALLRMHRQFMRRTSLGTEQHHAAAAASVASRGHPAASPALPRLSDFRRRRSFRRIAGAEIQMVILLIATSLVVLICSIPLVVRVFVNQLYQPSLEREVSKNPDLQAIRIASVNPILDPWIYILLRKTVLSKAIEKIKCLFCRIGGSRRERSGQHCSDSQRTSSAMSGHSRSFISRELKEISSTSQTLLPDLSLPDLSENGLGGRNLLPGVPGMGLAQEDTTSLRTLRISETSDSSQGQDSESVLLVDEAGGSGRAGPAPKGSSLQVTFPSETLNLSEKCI

Ki [1] [nM]	EC50 [2] [nM]	EC50 [3] [nM]	Ki [4] [nM]	Structure (SMILES)
3840				CCCCCCC(O)c1ccc(N2C(=O)CC[C@@H]2COCc2ccc(C(=O)O)s2)cc1 (single isomer, unassigned) [Example 34]
	3	403		CCCCCC(O)c1ccc(N2C(=O)CC[C@@H]2COCc2ccc(C(=O)O)s2)cc1 (stereo partly drawn) [Example 9, 5-{(R)-1-[4-(1-Hydroxy-hexyl)-phenyl]-5-oxo-pyrrolidin-2-ylmethoxymethyl}-thiophene-2-carboxylic acid]
	0.9		10	CCCCCCC(O)c1ccc(N2C(=O)CC[C@@H]2CCCc2ccc(C(=O)O)s2)cc1 (stereo partly drawn) [Example 36, 5-(3-{(S)-1-[4-(1-Hydroxy-heptyl)-phenyl]-5-oxo-pyrrolidin-2-yl}-propyl)-thiophene-2-carboxylic acid]
		519		CCCCCCC(O)c1ccc(N2C(=O)CC[C@@H]2COCc2ccc(C(=O)O)s2)cc1 (stereo partly drawn) [Example 13, 5-{(R)-1-[4-(1-Hydroxy-heptyl)-phenyl]-5-oxo-pyrrolidin-2-ylmethoxymethyl}-thiophene-2-carboxylic acid]
